Here are results for two compounds from publication PMC6409773 (Marine Drugs, 2019).

The target of assay [1] is T1, D1 (h) Dopamine (Homo sapiens, UniProt P21728). Briefly: Cell-based functional GPCR assay, agonist effect (cAMP). Conditions: read-out: % of Control Agonist Response. The procedure:
(§1) A functional GPCR cell-based assay presents readouts of multiple second messengers including cAMP for Gi and Gs-coupled receptors and IP1 and IP3/calcium flux for Gq-coupled receptors. Functional assays were conducted at Eurofins Cerep (Le Bois I’Eveque, France) using transected cells expressing human cloned receptors. The in-house functional assay protocol (https://www.eurofinsdiscoveryservices.com/cms/cms-content/services/in-vitro-assays/gpcrs/functional/) and experimental conditions are shown in Supplementary Table S1. Stable cell lines expressing recombinant GPCRs were used in this study.
(§2) . Following incubation, cells were lysed and a fluorescence acceptor (D2-labeled cAMP) and fluorescence donor (anti-cAMP antibody with europium cryptate) were added. After 60 min at room temperature, fluorescence transfer was measured at λex = 337 nm and λem = 620 and 665 nm using a microplate reader (Envison, Perkin Elmer, Waltham, MA, USA). Cyclic AMP concentration was determined by dividing the signal measured at 665 nm by that measured at 620 nm (ratio). […].
(§3) Cellular agonist effect was calculated as the percentage of the control response to a known reference agonist for each target and the cellular antagonist effect was calculated as the percentage inhibition of the control reference agonist response for each target. Results are expressed as a percentage of control agonist response or inverse agonist response (measured response/control response × 100) and as percent inhibition of control agonist response [100 − (measured response/control response × 100)] obtained in the presence of the eckol.

Assay [2] concerns the target T2, D3 (h) Dopamine (Homo sapiens, UniProt P35462). The description is as above. The procedure: as §1, §2, §3
In assay [3] the target is T3, D4 (h) Dopamine (Homo sapiens, UniProt P21917).
T3 sequence (P21917 1-419): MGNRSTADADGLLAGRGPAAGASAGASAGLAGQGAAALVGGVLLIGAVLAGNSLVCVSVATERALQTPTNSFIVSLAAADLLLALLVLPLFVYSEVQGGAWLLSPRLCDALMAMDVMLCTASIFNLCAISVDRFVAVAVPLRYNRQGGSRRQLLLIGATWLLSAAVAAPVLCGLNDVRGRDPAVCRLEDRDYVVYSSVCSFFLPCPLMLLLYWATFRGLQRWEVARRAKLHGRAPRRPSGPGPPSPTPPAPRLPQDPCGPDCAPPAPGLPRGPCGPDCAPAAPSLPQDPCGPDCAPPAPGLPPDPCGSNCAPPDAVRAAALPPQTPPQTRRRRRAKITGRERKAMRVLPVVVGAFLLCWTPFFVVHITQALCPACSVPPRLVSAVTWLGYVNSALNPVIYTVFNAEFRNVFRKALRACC
The assay is described as above. The procedure: as §1, §2, §3

Assay [4] concerns the target T4, 5-HT1A (h) Serotonin (Homo sapiens, UniProt P08908).
T4 sequence (P08908 1-422): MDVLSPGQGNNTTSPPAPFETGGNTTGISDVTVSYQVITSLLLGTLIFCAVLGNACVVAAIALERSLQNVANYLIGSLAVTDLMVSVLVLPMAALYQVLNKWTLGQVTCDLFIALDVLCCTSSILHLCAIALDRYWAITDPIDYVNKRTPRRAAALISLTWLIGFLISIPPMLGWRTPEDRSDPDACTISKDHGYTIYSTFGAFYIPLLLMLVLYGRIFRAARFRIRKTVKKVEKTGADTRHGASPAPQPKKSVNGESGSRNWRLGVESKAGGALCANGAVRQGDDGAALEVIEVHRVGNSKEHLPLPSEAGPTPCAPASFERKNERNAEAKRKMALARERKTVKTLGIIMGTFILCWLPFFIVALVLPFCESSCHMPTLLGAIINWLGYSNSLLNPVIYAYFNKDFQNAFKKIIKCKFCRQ
Nature of the assay: Cell-based functional GPCR assay, agonist effect. Conditions: read-out: % of Control Agonist Response. The procedure:
as §1
(§4) The method used to quantify the intracellular [Ca^2+] level varied slightly according to receptor type. However, in general, cells expressing different receptors (Table 1) were transfected with an expression vector encoding a receptor polypeptide and were allowed to grow for a time period sufficient for that receptor to be expressed. A fluorescent probe (Fluo8 Direct, Invitrogen, Carlsbad, CA, USA) mixed with probencid in HBSS buffer (Invitrogen, Carlsbad, CA, USA) supplemented with […] (Invitrogen) (pH 7.4) was then added to each well and allowed to equilibrate with the cells for 60 min at 37 °C. Thereafter, assay plates were positioned in a microplate reader (CellLux, PerkinElmer, Waltham, MA, USA) and eckol (25 and 50 μM), reference agonist, or HBSS buffer (basal control) were added, and measurements of the change in fluorescence intensity, which varies proportionally to the free cytosolic Ca^2+ ion concentration, were taken. Standard reference control (agonist and antagonist) values are presented in Table 1, and controls were included in each experiment at several concentrations to generate a concentration-response curve from which to calculate EC50 values.
as §3

Assay [5] has as its target T5, M5 (h) Acetylcholine (muscarinic) (Homo sapiens, UniProt P08912).
T5 sequence (P08912 1-532): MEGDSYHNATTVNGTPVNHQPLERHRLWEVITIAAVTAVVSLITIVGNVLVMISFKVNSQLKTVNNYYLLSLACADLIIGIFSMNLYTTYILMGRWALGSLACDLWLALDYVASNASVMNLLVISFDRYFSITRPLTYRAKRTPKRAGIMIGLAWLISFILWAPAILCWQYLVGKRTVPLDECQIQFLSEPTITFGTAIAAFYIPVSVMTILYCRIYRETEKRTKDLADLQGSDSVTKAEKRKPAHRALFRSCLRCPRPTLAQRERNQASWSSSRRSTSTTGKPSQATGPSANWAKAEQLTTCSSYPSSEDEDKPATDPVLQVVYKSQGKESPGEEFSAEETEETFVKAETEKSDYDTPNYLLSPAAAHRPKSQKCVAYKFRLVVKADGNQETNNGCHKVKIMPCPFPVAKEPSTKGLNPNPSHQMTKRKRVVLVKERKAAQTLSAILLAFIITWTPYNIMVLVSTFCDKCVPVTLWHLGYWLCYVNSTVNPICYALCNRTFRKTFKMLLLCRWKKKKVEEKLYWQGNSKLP
Briefly: Cell-based functional GPCR assay, agonist effect. Conditions: read-out: % of Control Agonist Response. How it is done: as §1, §4, §3

The target of assay [6] is T6, NK1 (h) Tachykinin (Homo sapiens, UniProt P25103). Nature of the assay: Cell-based functional GPCR assay, agonist effect. Conditions: read-out: % of Control Agonist Response. How it is done:
as §1, §4, §3

Assay [7] deals with T7, V1A (h) Vasopressin/Oxytocin (Homo sapiens, UniProt P37288). Briefly: Cell-based functional GPCR assay, agonist effect. As to conditions: read-out: % of Control Agonist Response. How it is done:
as §1, §4, §3

The target of assay [8] is T1, D1 (h) Dopamine. Nature of the assay: Cell-based functional GPCR assay, antagonist effect (cAMP). Conditions: read-out: % Inhibition of Control Agonist Response. How it is done:
as §1, §2, §3

Assay [9] concerns the target T2, D3 (h) Dopamine. The description is as above. As to conditions: read-out: % Inhibition of Control Agonist Response. The procedure:
as §1, §2, §3

The target in assay [10] is T3, D4 (h) Dopamine. The assay is described as above. As to conditions: read-out: % Inhibition of Control Agonist Response. The procedure: as §1, §2, §3
In assay [11] the target is T4, 5-HT1A (h) Serotonin. Briefly: Cell-based functional GPCR assay, antagonist effect. As to conditions: read-out: % Inhibition of Control Agonist Response. The procedure:
as §1, §4, §3

Assay [12] has as its target T5, M5 (h) Acetylcholine (muscarinic). The description is as above. As to conditions: read-out: % Inhibition of Control Agonist Response. How it is done: as §1, §4, §3
Assay [13] addresses T6, NK1 (h) Tachykinin. The description is as above. Conditions: read-out: % Inhibition of Control Agonist Response. How it is done: as §1, §4, §3
The target of assay [14] is T7, V1A (h) Vasopressin/Oxytocin. The assay is described as above. Conditions: read-out: % Inhibition of Control Agonist Response. The procedure: as §1, §4, §3
Assay [15] deals with T6, NK1 (h) Tachykinin. Also noted: method as in Eurofins Panlab. Conditions: as reported by Eurofins Panlab, ref Eurofins Panlab, read-out: Reference Antagonists of Respective Target Receptors IC50; cited from earlier work.
The mark [16] stands for this setting: 25 μM, read-out: % of Control Agonist Response.
[17] abbreviates: 50 μM, read-out: % of Control Agonist Response.
Where [18] appears, read: read-out: EC50 (concentration producing a half-maximal agonist response).

T1 sequence (P21728 whole entry): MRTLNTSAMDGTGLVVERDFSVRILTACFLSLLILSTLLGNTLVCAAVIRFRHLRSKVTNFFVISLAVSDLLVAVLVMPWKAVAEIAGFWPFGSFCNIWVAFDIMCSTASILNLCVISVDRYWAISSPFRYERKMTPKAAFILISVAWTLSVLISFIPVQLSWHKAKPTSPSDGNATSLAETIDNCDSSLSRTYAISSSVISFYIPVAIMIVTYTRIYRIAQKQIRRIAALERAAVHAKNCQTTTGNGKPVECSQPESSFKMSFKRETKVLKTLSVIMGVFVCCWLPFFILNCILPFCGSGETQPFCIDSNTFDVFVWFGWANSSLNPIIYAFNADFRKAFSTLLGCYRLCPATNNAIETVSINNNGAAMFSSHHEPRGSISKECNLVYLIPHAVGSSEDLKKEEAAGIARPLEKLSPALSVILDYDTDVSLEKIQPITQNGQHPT
T2 sequence (P35462 whole entry): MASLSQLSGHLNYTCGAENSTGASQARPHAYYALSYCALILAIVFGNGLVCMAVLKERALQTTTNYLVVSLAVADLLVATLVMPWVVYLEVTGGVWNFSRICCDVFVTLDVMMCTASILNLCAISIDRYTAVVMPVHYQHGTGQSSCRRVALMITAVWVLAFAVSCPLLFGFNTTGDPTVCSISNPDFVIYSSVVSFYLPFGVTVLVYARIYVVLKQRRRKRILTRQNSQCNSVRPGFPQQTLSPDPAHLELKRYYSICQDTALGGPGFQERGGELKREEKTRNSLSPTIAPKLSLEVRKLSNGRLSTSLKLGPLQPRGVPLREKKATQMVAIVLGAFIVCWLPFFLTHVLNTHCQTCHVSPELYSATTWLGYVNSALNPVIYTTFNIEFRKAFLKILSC
T6 sequence (P25103 whole entry): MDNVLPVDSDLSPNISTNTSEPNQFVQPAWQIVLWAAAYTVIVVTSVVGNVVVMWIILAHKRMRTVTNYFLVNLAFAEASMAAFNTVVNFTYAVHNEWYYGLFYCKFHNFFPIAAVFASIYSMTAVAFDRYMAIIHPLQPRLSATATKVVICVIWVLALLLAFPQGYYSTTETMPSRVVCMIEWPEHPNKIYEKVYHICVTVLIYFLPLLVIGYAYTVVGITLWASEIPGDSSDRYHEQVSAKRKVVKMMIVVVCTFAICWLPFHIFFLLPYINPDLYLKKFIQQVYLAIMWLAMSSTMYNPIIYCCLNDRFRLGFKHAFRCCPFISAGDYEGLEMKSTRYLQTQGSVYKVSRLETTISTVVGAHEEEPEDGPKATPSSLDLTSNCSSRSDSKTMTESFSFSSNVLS
T7 sequence (P37288 whole entry): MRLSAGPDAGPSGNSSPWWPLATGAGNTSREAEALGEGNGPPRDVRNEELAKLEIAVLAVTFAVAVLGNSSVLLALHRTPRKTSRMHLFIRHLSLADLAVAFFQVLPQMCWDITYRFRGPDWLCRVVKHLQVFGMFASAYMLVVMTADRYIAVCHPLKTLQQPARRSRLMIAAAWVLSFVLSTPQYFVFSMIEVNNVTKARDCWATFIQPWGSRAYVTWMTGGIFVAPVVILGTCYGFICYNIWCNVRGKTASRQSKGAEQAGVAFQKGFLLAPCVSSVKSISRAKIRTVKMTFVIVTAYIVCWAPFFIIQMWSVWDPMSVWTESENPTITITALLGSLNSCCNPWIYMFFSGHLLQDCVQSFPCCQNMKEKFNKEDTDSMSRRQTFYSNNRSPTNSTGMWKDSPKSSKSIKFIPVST

As for `Oc1cc(O)cc(Oc2c(O)cc(O)c3c2Oc2c(O)cc(O)cc2O3)c1` [Eckol, eckol], the activity at 25 µM at D1 (h) Dopamine [1] (25 μM) is -0.58 ± 2.46%; at D3 (h) Dopamine [2] (setting [16]), 10.6 ± 4.16%; at D4 (h) Dopamine [3] (setting [16]), 36.5 ± 10.9%; on 5-HT1A (h) Serotonin [4] (25 μM), -1.78 ± 0.45%; in assay [5] (25 μM), 0.38 ± 0.1%; at NK1 (h) Tachykinin [6] (25 μM) it was -2.32 ± 0.26%. The activity at 25 µM in assay [7] (25 μM) is -8.91 ± 3.2%. For the same compound, the activity at 50 µM on D1 (h) Dopamine [1] (50 μM) is -2.77 ± 1.27%; on D3 (h) Dopamine [2] (setting [17]) it was 53.1 ± 6.67%; on D4 (h) Dopamine [3] (setting [17]), 54.7 ± 7.05%; at 5-HT1A (h) Serotonin [4] (50 μM) it was -3.04 ± 1.23%; in assay [5] (50 μM), 0.39 ± 0.46%; on NK1 (h) Tachykinin [6] (50 μM), -2.99 ± 0.21%. In addition, in assay [7] (50 μM), the activity at 50 µM was -12.5 ± 0.51%. In addition, the EC50 stood at 48.6 ± 3.21 µM at D3 (h) Dopamine [2] (setting [18]) and 42.6 ± 2.54 µM at D4 (h) Dopamine [3] (setting [18]). Further, the inhibition at 25 µM at D1 (h) Dopamine [8] (25 μM) was 11.6 ± 2.15%; on D3 (h) Dopamine [9] (25 μM) it was -9 ± 6.98%; on D4 (h) Dopamine [10] (25 μM), 1.33 ± 1.7%; at 5-HT1A (h) Serotonin [11] (25 μM) it was 6.17 ± 10.3%; in [12] (25 μM) it was 1 ± 0.4%; at NK1 (h) Tachykinin [13] (25 μM), -11.3 ± 6.37%. In addition, in [14] (25 μM), the inhibition at 25 µM is -13.5 ± 6.93%. In addition, the inhibition at 50 µM is 1.89 ± 1.62% on D1 (h) Dopamine [8] (50 μM); -15.1 ± 2.51% on D3 (h) Dopamine [9] (50 μM); -3.33 ± 4.7% at D4 (h) Dopamine [10] (50 μM); 3.49 ± 4.33% at 5-HT1A (h) Serotonin [11] (50 μM); -4.8 ± 2.25% in [12] (50 μM); -4.32 ± 3.33% on NK1 (h) Tachykinin [13] (50 μM). Besides, in assay [14] (50 μM), the inhibition at 50 µM is -4.26 ± 11.1%.

In the case of `FC(F)(F)c1cc(CO[C@H]2CCCN[C@H]2c2ccccc2)cc(C(F)(F)F)c1` [L 733,060], the half-inhibitory concentration (IC50) on NK1 (h) Tachykinin [15] is 0.21 nM.
